According to ChEMBL document CHEMBL5335813, “Gausemycin Antibiotic Family Acts via Ca2+-Dependent Membrane Targeting” (2024):
≈ marks a conversion by molar mass, not a printed value. Calls of active or inactive are those of the source.

How the values were obtained:
Staphylococcus aureus [1] = test: Antimicrobial activity against Staphylococcus aureus ATCC 29213 assessed as microbial growth inhibition at pH 5 to 6 by susceptibility testing method; type: functional, organism-based
Staphylococcus aureus [2] = test: Antimicrobial activity against Staphylococcus aureus ATCC 29213 assessed as microbial growth inhibition measured after 18 hrs by CLSI based broth microdilution method; type: functional
Staphylococcus aureus [3] = test: Antimicrobial activity against Staphylococcus aureus ATCC 29213 assessed as microbial growth inhibition at pH 5 to 6 by microdilution method; type: functional, organism-based
Staphylococcus aureus [4] = test: Antimicrobial activity against Staphylococcus aureus ATCC 29213 assessed as microbial growth inhibition in presence of Na+ by susceptibility testing method; type: functional
Staphylococcus aureus [5] = test: Antimicrobial activity against Staphylococcus aureus ATCC 29213 assessed as microbial growth inhibition in presence of K+ by susceptibility testing method; type: functional
Staphylococcus aureus [6] = test: Antimicrobial activity against Staphylococcus aureus ATCC 29213 assessed as microbial growth inhibition in presence of Mg2+ by susceptibility testing method; type: functional
Staphylococcus aureus [7] = test: Antimicrobial activity against Staphylococcus aureus ATCC 29213 assessed as microbial growth inhibition in presence of Mn2+ by susceptibility testing method; type: functional
Staphylococcus aureus [8] = test: Antimicrobial activity against Staphylococcus aureus ATCC 29213 assessed as microbial growth inhibition in presence of Zn2+ by susceptibility testing method; type: functional
Staphylococcus aureus [9] = test: Antimicrobial activity against Staphylococcus aureus ATCC 29213 assessed as microbial growth inhibition in presence of Cu2+ by susceptibility testing method; type: functional
Staphylococcus aureus [10] = test: Antimicrobial activity against Staphylococcus aureus ATCC 29213 assessed as microbial growth inhibition in presence of Fe3+ by susceptibility testing method; type: functional
Staphylococcus aureus [11] = test: Antimicrobial activity against Staphylococcus aureus ATCC 29213 assessed as microbial growth inhibition in presence of Ca2+ by susceptibility testing method; type: functional
Escherichia coli [12] = test: Antimicrobial activity against Escherichia coli BL21 (DE3) assessed as microbial growth inhibition in presence of Ca2+ by susceptibility testing method; type: functional, organism-based
Escherichia coli [13] = test: Antimicrobial activity against Escherichia coli expressing delta-tolC/KanR assessed as microbial growth inhibition in presence of Ca2+ by susceptibility testing method; type: functional, organism-based
Pseudomonas aeruginosa = test: Antimicrobial activity against Pseudomonas aeruginosa assessed as microbial growth inhibition in presence of Ca2+ by susceptibility testing method; type: functional, organism-based
Micrococcus luteus = test: Antimicrobial activity against Micrococcus luteus assessed as microbial growth inhibition in presence of Ca2+ by susceptibility testing method; type: functional, organism-based
Macrococcus caseolyticus = test: Antimicrobial activity against Macrococcus caseolyticus assessed as microbial growth inhibition in presence of Ca2+ by susceptibility testing method; type: functional, organism-based; conditions: Macrococcoides caseolyticum
Bacillus cereus = test: Antimicrobial activity against Bacillus cereus X1 assessed as microbial growth inhibition in presence of Ca2+ by susceptibility testing method; type: functional, organism-based
Staphylococcus aureus [14] = test: Antimicrobial activity against Staphylococcus aureus ATCC 29213 assessed as microbial growth inhibition in presence of <=200 mM of (H2PO4)-/(HPO4)2- by susceptibility testing method; type: functional, organism-based
Lipid bilayer [15] = test: Induction of pore formation in zwitter-ionic DOPC lipid bilayer membrane model at 1 to 100 ug/ml; conditions: dose 1-100 µg/ml
Lipid bilayer [16] = test: Induction of pore formation in anionic DOPC/DOPG lipid bilayer membrane model at 1 to 100 ug/ml; conditions: dose 1-100 µg/ml
Lipid bilayer [17] = test: Induction of pore formation in anionic DPhPG lipid bilayer membrane model at 1 to 100 ug/ml; conditions: dose 1-100 µg/ml
Lipid bilayer [18] = test: Induction of pore formation in anionic TOCL lipid bilayer membrane model at 1 to 100 ug/ml; conditions: dose 1-100 µg/ml
Lipid bilayer [19] = test: Induction of pore formation in anionic TMoCL lipid bilayer membrane model at 1 to 100 ug/ml; conditions: dose 1-100 µg/ml
Lipid bilayer [20] = test: Induction of pore formation in cationic DOPC/DOTAP lipid bilayer membrane model at 1 to 100 ug/ml; conditions: dose 1-100 µg/ml
Lipid bilayer [21] = test: Induction of pore formation in anionic DOPC/DOPG lipid bilayer membrane model at 1 to 100 ug/ml in presence of CaCl2; conditions: dose 1-100 µg/ml
Lipid bilayer [22] = test: Induction of pore formation in cationic DOPC/DOTAP lipid bilayer membrane model at 1 to 100 ug/ml in presence of CaCl2; conditions: dose 1-100 µg/ml
Lipid bilayer [23] = test: Induction of pore formation in anionic DPhPG lipid bilayer membrane model at 1 to 100 ug/ml in presence of CaCl2; conditions: dose 1-100 µg/ml
Lipid bilayer [24] = test: Induction of pore formation in anionic TOCL lipid bilayer membrane model at 1 to 100 ug/ml in presence of CaCl2; conditions: dose 1-100 µg/ml
Lipid bilayer [25] = test: Induction of pore formation in anionic TMoCL lipid bilayer membrane model assessed as pore-forming threshold concentration
Lipid bilayer [26] = test: Induction of pore formation in anionic TMoCL lipid bilayer membrane model assessed as pore-forming threshold concentration in presence of CaCl2

## CN[C@H](CC(C)C)C(=O)N[C@H]1C(=O)N[C@@H](CC(N)=O)C(=O)N[C@H]2C(=O)N[C@H]3C(=O)N[C@H](C(=O)N[C@H](C(=O)O)c4cc(O)cc(O)c4-c4cc3ccc4O)[C@H](O)c3ccc(c(Cl)c3)Oc3cc2cc(c3O[C@@H]2O[C@H](CO)[C@@H](O)[C@H](O)[C@H]2O[C@H]2C[C@](C)(N)[C@H](O)[C@H](C)O2)Oc2ccc(cc2Cl)[C@H]1O
Staphylococcus aureus [1]
  growth inhibition (GI): Active

## CNCCC(=O)NCCC[C@H](NC(=O)CCNC(=O)/C=C\C=C\C(C)C)C(=O)NC(CC(O)c1ccccc1)C(=O)NC(C(=O)N[C@@H](Cc1ccc(OC2OC[C@H](O)[C@H](O)[C@H]2O)cc1)C(=O)NC1C(=O)N[C@H](CC(C)C)C(=O)N[C@@H](CC(=O)O)C(=O)NCC(=O)N[C@@H](CO)C(=O)NCC(=O)N[C@@H](CC(=O)c2ccc(Cl)cc2N)C(=O)N[C@@H](C)C(=O)N2CCC[C@H]2C(=O)NC1C)C(O)CC(=O)O (stereo partly drawn)
Staphylococcus aureus [2]
  MIC: 4 µg/mL (≈ 2.07 µM)

## CCCCCCCCCC(=O)N[C@@H](Cc1c[nH]c2ccccc12)C(=O)N[C@H](CC(N)=O)C(=O)N[C@@H](CC(=O)O)C(=O)N[C@@H]1C(=O)NCC(=O)N[C@@H](CCCN)C(=O)N[C@@H](CC(=O)O)C(=O)N[C@H](C)C(=O)N[C@@H](CC(=O)O)C(=O)NCC(=O)N[C@H](CO)C(=O)N[C@@H]([C@H](C)CC(=O)O)C(=O)N[C@@H](CC(=O)c2ccccc2N)C(=O)O[C@@H]1C
Staphylococcus aureus [3]
  growth inhibition (GI): Active

## CC(C)/C=C/C=C\C(=O)NCCC(=O)N[C@@H](CCCNC(=O)CCN)C(=O)NC(CC(O)c1ccccc1)C(=O)NC(C(=O)N[C@@H](Cc1ccc(OC2OC[C@H](O)[C@H](O)[C@H]2O)cc1)C(=O)NC1C(=O)N[C@H](CC(C)C)C(=O)N[C@@H](CC(=O)O)C(=O)NCC(=O)N[C@@H](CO)C(=O)NCC(=O)N[C@@H](CC(=O)c2ccc(Cl)cc2N)C(=O)N[C@@H](C)C(=O)N2CCC[C@H]2C(=O)NC1C)C(O)CC(=O)O (stereo partly drawn)
Staphylococcus aureus [2]
  MIC: 2 µg/mL (≈ 1.04 µM)
Staphylococcus aureus [4]
  growth inhibition (GI): Active
Staphylococcus aureus [5]
  growth inhibition (GI): Active
Staphylococcus aureus [6]
  growth inhibition (GI): Active
Staphylococcus aureus [7]
  growth inhibition (GI): Active
Staphylococcus aureus [8]
  growth inhibition (GI): Active
Staphylococcus aureus [9]
  growth inhibition (GI): Active
Staphylococcus aureus [10]
  growth inhibition (GI): Active
Staphylococcus aureus [11]
  growth inhibition (GI): Active
Staphylococcus aureus [1]
  growth inhibition (GI): Active
Escherichia coli [12]
  inhibition: inactive
Escherichia coli [13]
  inhibition: inactive
Pseudomonas aeruginosa
  inhibition: inactive
Micrococcus luteus
  inhibition: Active
Macrococcus caseolyticus
  inhibition: Active
Bacillus cereus
  inhibition: Active
Staphylococcus aureus [14]
  Activity: inactive
Lipid bilayer [15]
  Activity: inactive
Lipid bilayer [16]
  Activity: Active
Lipid bilayer [17]
  Activity: Active
Lipid bilayer [18]
  Activity: Active
Lipid bilayer [19]
  Activity: Active
Lipid bilayer [20]
  Activity: Active
Lipid bilayer [21]
  Activity: Active
Lipid bilayer [22]
  Activity: Active
Lipid bilayer [23]
  Activity: Active
Lipid bilayer [24]
  Activity: Active
Lipid bilayer [25]
  Activity: 10 µg/mL
Lipid bilayer [26]
  Activity: 7 µg/mL

## CNCCC(=O)NCCC[C@H](NC(=O)CCNC(=O)/C=C\C=C\C(C)C)C(=O)NC(CC(O)c1ccccc1)C(=O)NC(C(=O)N[C@@H](Cc1ccc(O)cc1)C(=O)NC1C(=O)N[C@H](CC(C)C)C(=O)N[C@@H](CC(=O)O)C(=O)NCC(=O)N[C@@H](CO)C(=O)NCC(=O)N[C@@H](CC(=O)c2ccc(Cl)cc2N)C(=O)N[C@@H](C)C(=O)N2CCC[C@H]2C(=O)NC1C)C(O)CC(=O)O (stereo partly drawn)
Staphylococcus aureus [2]
  MIC: 16 µg/mL (≈ 8.89 µM)
